Reference: US9944602B2, “Piperidinone herbicides” (E. I. DU PONT DE NEMOURS AND COMPANY, priority 2014, dated 2018)

Columns and labels:
Format in all cases: in vivo
corn (Zea mays) = assay: Test A postemergence corn; details: 0 to 100 scale, 0 is no effect, 100 is complete control
Description: (§1) Seeds of plant species selected from barnyardgrass (Echinochloa crus-galli), kochia (Kochia scoparia), ragweed (common ragweed, Ambrosia elatior), ryegrass, Italian (Italian ryegrass, Lolium multiflorum), crabgrass, large (large crabgrass, Digitaria sanguinalis), foxtail, giant (giant foxtail, Setaria faberii), morningglory (Ipomoea spp.), pigweed (Amaranthus retroflexus), velvetleaf (Abutilon theophrasti), wheat (Triticum aestivum), and corn (Zea mays) were planted into a blend of loam soil and sand and treated preemergence with a directed soil spray using test chemicals formulated in a non-phytotoxic solvent mixture which included a surfactant.
(§2) At the same time, plants selected from these crop and weed species and also blackgrass (Alopecurus myosuroides), and galium (catchweed bedstraw, Galium aparine) were planted in pots containing the same blend of loam soil and sand and treated with postemergence applications of test chemicals formulated in the same manner. Plants ranged in height from 2 to 10 cm and were in the one- to two-leaf stage for the postemergence treatment. Treated plants and untreated controls were maintained in a greenhouse for approximately 10 d, after which time all treated plants were compared to untreated controls and visually evaluated for injury. Plant response ratings, summarized in Table A, are based on a 0 to 100 scale where 0 is no effect and 100 is complete control. A dash (-) response means no test result.

[1] = tested on: barnyardgrass (Echinochloa crus-galli); assay: Test A postemergence barnyardgrass; details: 0 to 100 scale, 0 is no effect, 100 is complete control
Description: as §1, §2

[2] = tested on: wheat (Triticum aestivum); assay: Test A postemergence wheat; details: 0 to 100 scale, 0 is no effect, 100 is complete control
Description: as §1, §2

[3] = tested on: foxtail, giant (giant foxtail, Setaria faberii); assay: Test A preemergence foxtail, giant; details: 0 to 100 scale, 0 no effect, 100 complete control
Description: as §1, §2

[4] = tested on: ducksalad (Heteranthera limosa); assay: Test B flooded paddy test ducksalad; details: Table B, Flood, scale 0 to 100
Experimental: (§3) Plant species in the flooded paddy test selected from rice (Oryza sativa), sedge, umbrella (small-flower umbrella sedge, Cyperus difformis), ducksalad (Heteranthera limosa), and barnyardgrass (Echinochloa crus-galli) were grown to the 2-leaf stage for testing. At the time of treatment, test pots were flooded to 3 cm above the soil surface, treated by application of test compounds directly to the paddy water, and then maintained at that water depth for the duration of the test. Treated plants and controls were maintained in a greenhouse for 13 to 15 d, after which time all species were compared to controls and visually evaluated. […] A dash (-) response means no test result.

[5] = tested on: pigweed (Amaranthus retroflexus); assay: Test A postemergence pigweed; details: 0 to 100 scale, 0 is no effect, 100 is complete control
Description: as §1, §2

[6] = tested on: ryegrass, Italian (Italian ryegrass, Lolium multiflorum); assay: Test A postemergence ryegrass, Italian; details: 0 to 100 scale, 0 is no effect, 100 is complete control
Description: as §1, §2

[7] = tested on: ryegrass, Italian (Italian ryegrass, Lolium multiflorum); assay: Test A preemergence ryegrass, Italian; details: 0 to 100 scale, 0 no effect, 100 complete control
Description: as §1, §2

[8] = tested on: foxtail, giant (giant foxtail, Setaria faberii); assay: Test A postemergence foxtail, giant; details: 0 to 100 scale, 0 is no effect, 100 is complete control
Description: as §1, §2

[9] = tested on: barnyardgrass (Echinochloa crus-galli); assay: Test A preemergence barnyardgrass; details: 0 to 100 scale, 0 no effect, 100 complete control
Description: as §1, §2

[10] = tested on: barnyardgrass (Echinochloa crus-galli); assay: Test B flooded paddy test barnyardgrass; details: Table B, Flood, scale 0 to 100
Experimental: as §3

[11] = tested on: blackgrass (Alopecurus myosuroides); assay: Test A postemergence blackgrass; details: 0 to 100 scale, 0 is no effect, 100 is complete control
Description: as §1, §2

[12] = tested on: ragweed (common ragweed, Ambrosia elatior); assay: Test A preemergence ragweed; details: 0 to 100 scale, 0 no effect, 100 complete control
Description: as §1, §2

kochia (Kochia scoparia) [13] = assay: Test A preemergence kochia; details: 0 to 100 scale, 0 no effect, 100 complete control
Description: as §1, §2

[14] = tested on: galium (catchweed bedstraw, Galium aparine); assay: Test A postemergence galium; details: 0 to 100 scale, 0 is no effect, 100 is complete control
Description: as §1, §2

kochia (Kochia scoparia) [15] = assay: Test A postemergence kochia; details: 0 to 100 scale, 0 is no effect, 100 is complete control
Description: as §1, §2

[16] = tested on: ragweed (common ragweed, Ambrosia elatior); assay: Test A postemergence ragweed; details: 0 to 100 scale, 0 is no effect, 100 is complete control
Description: as §1, §2

rice (Oryza sativa) = assay: Test B flooded paddy test rice; details: Table B, Flood, scale 0 to 100
Experimental: as §3

[17] = tested on: pigweed (Amaranthus retroflexus); assay: Test A preemergence pigweed; details: 0 to 100 scale, 0 no effect, 100 complete control
Description: as §1, §2

[18] = tested on: sedge, umbrella (small-flower umbrella sedge, Cyperus difformis); assay: Test B flooded paddy test sedge, umbrella; details: Table B, Flood, scale 0 to 100
Experimental: as §3

Structure (SMILES)	Plant response rating, Corn (corn (Zea mays); 125 g ai/ha)	Plant response rating, Corn (corn (Zea mays); 500 g ai/ha)	Plant response rating, Barnyardgrass ([1]; 125 g ai/ha)	Plant response rating, Barnyardgrass ([1]; 500 g ai/ha)	Plant response rating, Wheat ([2]; 125 g ai/ha)	Plant response rating, Wheat ([2]; 500 g ai/ha)	Foxtail, Giant plant response rating ([3]; 125 g ai/ha)	Foxtail, Giant plant response rating ([3]; 500 g ai/ha)	Plant response rating, Pigweed ([5]; 125 g ai/ha)	Plant response rating, Pigweed ([5]; 500 g ai/ha)	Plant response rating, Ryegrass, Italian ([6]; 125 g ai/ha)	Plant response rating, Ryegrass, Italian ([6]; 500 g ai/ha)	Ryegrass, Italian plant response rating ([7]; 125 g ai/ha)	Ryegrass, Italian plant response rating ([7]; 500 g ai/ha)	Plant response rating, Foxtail, Giant ([8]; 125 g ai/ha)	Plant response rating, Foxtail, Giant ([8]; 500 g ai/ha)	Barnyardgrass plant response rating ([9]; 125 g ai/ha)	Barnyardgrass plant response rating ([9]; 500 g ai/ha)	Plant response rating, Blackgrass ([11]; 125 g ai/ha)	Plant response rating, Blackgrass ([11]; 500 g ai/ha)	also measured
O=C(Nc1ccccc1C(F)(F)F)C1C(=O)N(C2CC2)CCC1c1ccc(F)cc1 (stereo not drawn) [Compound 50]	0	0	0	0	0	0	0	40	0	0	0	0	0	0	0	0	0	0	0	0	Plant response rating ([4]; 250 g ai/ha): 0; Plant response rating ([10]; 250 g ai/ha): 0; Ragweed plant response rating ([12]; 125 g ai/ha): 0; Ragweed plant response rating ([12]; 500 g ai/ha): 0; Kochia plant response rating (kochia (Kochia scoparia) [13]; 125 g ai/ha): 0; Kochia plant response rating (kochia (Kochia scoparia) [13]; 500 g ai/ha): 0; Plant response rating, Galium ([14]; 125 g ai/ha): 0; Plant response rating, Galium ([14]; 500 g ai/ha): 0; Plant response rating, Kochia (kochia (Kochia scoparia) [15]; 125 g ai/ha): 0; Plant response rating, Kochia (kochia (Kochia scoparia) [15]; 500 g ai/ha): 0; Plant response rating, Ragweed ([16]; 125 g ai/ha): 0; Plant response rating, Ragweed ([16]; 500 g ai/ha): 0; Plant response rating (rice (Oryza sativa); 250 g ai/ha): 0; Pigweed plant response rating ([17]; 125 g ai/ha): 0; Pigweed plant response rating ([17]; 500 g ai/ha): 0; Plant response rating ([18]; 250 g ai/ha): 0
O=C1NCCC(c2cccc(C(F)F)c2)C1C(=O)Nc1ccccc1F (stereo not drawn) [Compound 48]	0	0	30	80	0	0	70	90	0	0	0	0	0	0	0	30	40	90	0	0	Plant response rating ([4]; 250 g ai/ha): 60; Plant response rating ([10]; 250 g ai/ha): 20; Ragweed plant response rating ([12]; 125 g ai/ha): 0; Ragweed plant response rating ([12]; 500 g ai/ha): 0; Kochia plant response rating (kochia (Kochia scoparia) [13]; 125 g ai/ha): 0; Kochia plant response rating (kochia (Kochia scoparia) [13]; 500 g ai/ha): 0; Plant response rating, Galium ([14]; 125 g ai/ha): 0; Plant response rating, Galium ([14]; 500 g ai/ha): 0; Plant response rating, Kochia (kochia (Kochia scoparia) [15]; 125 g ai/ha): 0; Plant response rating, Kochia (kochia (Kochia scoparia) [15]; 500 g ai/ha): 0; Plant response rating, Ragweed ([16]; 125 g ai/ha): 0; Plant response rating, Ragweed ([16]; 500 g ai/ha): 0; Plant response rating (rice (Oryza sativa); 250 g ai/ha): 15; Pigweed plant response rating ([17]; 125 g ai/ha): 0; Pigweed plant response rating ([17]; 500 g ai/ha): 0; Plant response rating ([18]; 250 g ai/ha): 0
O=C1NCCC(c2cccc(OC(F)F)c2)C1C(=O)Nc1cccc(F)c1F (racemic) [Compound 46]	0	50	60	90	0	50	90	90	0	0	0	0	0	20	20	80	50	90	0	40	Plant response rating ([4]; 500 g ai/ha): 100; Plant response rating ([10]; 500 g ai/ha): 65; Ragweed plant response rating ([12]; 125 g ai/ha): 0; Ragweed plant response rating ([12]; 500 g ai/ha): 0; Kochia plant response rating (kochia (Kochia scoparia) [13]; 125 g ai/ha): 0; Kochia plant response rating (kochia (Kochia scoparia) [13]; 500 g ai/ha): 0; Plant response rating, Galium ([14]; 125 g ai/ha): 0; Plant response rating, Galium ([14]; 500 g ai/ha): 0; Plant response rating, Kochia (kochia (Kochia scoparia) [15]; 125 g ai/ha): 0; Plant response rating, Kochia (kochia (Kochia scoparia) [15]; 500 g ai/ha): 0; Plant response rating, Ragweed ([16]; 125 g ai/ha): 0; Plant response rating, Ragweed ([16]; 500 g ai/ha): 0; Plant response rating (rice (Oryza sativa); 500 g ai/ha): 0; Pigweed plant response rating ([17]; 125 g ai/ha): 0; Pigweed plant response rating ([17]; 500 g ai/ha): 0; Plant response rating ([18]; 500 g ai/ha): 0
O=C1NCC[C@@H](c2cccc(Cl)c2)[C@@H]1C(=O)Nc1cccc(F)c1F [Compound 43]	0	0	0	0	0	0	0	0	0	0	0	0	0	0	0	0	0	0	0	0	Plant response rating ([4]; 250 g ai/ha): 0; Plant response rating ([10]; 250 g ai/ha): 0; Ragweed plant response rating ([12]; 125 g ai/ha): 0; Ragweed plant response rating ([12]; 500 g ai/ha): 0; Kochia plant response rating (kochia (Kochia scoparia) [13]; 125 g ai/ha): 0; Kochia plant response rating (kochia (Kochia scoparia) [13]; 500 g ai/ha): 0; Plant response rating, Galium ([14]; 125 g ai/ha): 0; Plant response rating, Galium ([14]; 500 g ai/ha): 0; Plant response rating, Kochia (kochia (Kochia scoparia) [15]; 125 g ai/ha): 0; Plant response rating, Kochia (kochia (Kochia scoparia) [15]; 500 g ai/ha): 0; Plant response rating, Ragweed ([16]; 125 g ai/ha): 0; Plant response rating, Ragweed ([16]; 500 g ai/ha): 0; Plant response rating (rice (Oryza sativa); 250 g ai/ha): 0; Pigweed plant response rating ([17]; 125 g ai/ha): 0; Pigweed plant response rating ([17]; 500 g ai/ha): 0; Plant response rating ([18]; 250 g ai/ha): 0
O=C1NCCC(c2cccc(OC(F)F)c2)C1C(=O)Nc1ccc(F)c(F)c1F (racemic) [Compound 44]	0	0	20	80	0	0	80	90	0	0	0	20	0	0	30	80	60	90	0	20	Plant response rating ([4]; 500 g ai/ha): 85; Plant response rating ([10]; 500 g ai/ha): 60; Ragweed plant response rating ([12]; 125 g ai/ha): 0; Ragweed plant response rating ([12]; 500 g ai/ha): 30; Kochia plant response rating (kochia (Kochia scoparia) [13]; 125 g ai/ha): 0; Kochia plant response rating (kochia (Kochia scoparia) [13]; 500 g ai/ha): 0; Plant response rating, Galium ([14]; 125 g ai/ha): 0; Plant response rating, Galium ([14]; 500 g ai/ha): 20; Plant response rating, Kochia (kochia (Kochia scoparia) [15]; 125 g ai/ha): 0; Plant response rating, Kochia (kochia (Kochia scoparia) [15]; 500 g ai/ha): 0; Plant response rating, Ragweed ([16]; 125 g ai/ha): 0; Plant response rating, Ragweed ([16]; 500 g ai/ha): 0; Plant response rating (rice (Oryza sativa); 500 g ai/ha): 0; Pigweed plant response rating ([17]; 125 g ai/ha): 0; Pigweed plant response rating ([17]; 500 g ai/ha): 0; Plant response rating ([18]; 500 g ai/ha): 0
